Data on 64 molecules can be found in a melting point compilation (Tetko et al.; mined from patent text by program, amines drawn as free bases though some values may be those of a salt).

Where only a bound is given, the exact number is not on record here.

As to `CC(=O)c1cc2cnccc2n1S(=O)(=O)c1ccccc1`, the melting point amounted to 205 °C.
On to `COc1ccc(C=O)cc1OCC(F)F`, for which the melting point was 66 to 68 °C.
`CNC(=O)C1CCCN1S(=O)(=O)c1ccc(N2CCC(NC[C@H](O)COc3cccc4[nH]c(=O)[nH]c34)CC2)cc1` (some centres undefined): the melting point was 36 to 39 °C.
For `COc1ccc(CNC(=O)[C@@H](NC(=O)[C@H](NCc2ccc(N(C)C)cc2)[C@H](O)[C@H](Cc2ccccc2)NC(=O)OC(C)(C)C)C(C)C)c(O)c1`, the melting point lay in the range of 89 to 91 °C.
In the case of `COC(=O)c1cnc(N2CCN(Cc3ccccc3)CC2)nc1OC` it was 135 to 138 °C.
The molecule `O=C1c2ccccc2-c2c1c(Cl)nc1cc(OCc3ccccc3)ccc21` returned a melting point of 212 to 214 °C.
In the case of `O=P(O)(O)C1(P(=O)(O)O)CCN2C=CC=CC2=N1` it was 80 °C; in that of `CN(C)c1ccc(CSC2=NC(C)(C)C(SCc3ccc(N(C)C)cc3)=N2)cc1`, 91 to 92 °C.
Turning to `CS(=O)(=O)c1ccc(-n2nc(C(F)F)cc2-c2nc3cccc(F)c3s2)cc1`, the melting point is 193 to 195 °C.
Consider `CC(C)(CCn1cnnc1)NCC(O)c1ccc(O)c(CO)c1` (centres undefined), for which the melting point fell in the range of 125 to 127 °C.
`O=C1c2nccc([N+](=O)[O-])c2-c2nc3ccccc3c3ccnc1c23`: the melting point is over 260 °C.
`COc1ccc(CCC(O)=S)cc1[N+](=O)[O-]`: the melting point lay within 130 to 132 °C.
`CN1CCN(C(=O)c2cc(S(=O)(=O)NC34CC5CC(CC(C5)C3)C4)ccc2N)CC1` displayed a melting point of 214 to 215 °C.
As to `CC(Nc1ccc(F)c(F)c1F)C(=O)O` (centres undefined), the melting point was in the range of 114 to 119 °C.
In the case of `COc1ccc(Cc2cc(CCNS(=O)(=O)c3ccc(Cl)cc3)cc(CCC(=O)O)c2)cc1` it was 106 to 108 °C; in that of `CCCOc1c(OC)cc(C(CCC(C(=O)O)c2cc(OC)c(OC)c(OC)c2)C(=O)O)cc1SC` (centres undefined), 172 to 174 °C.
The molecule `C[C@@H](O)CN1CC(c2cccc(C(F)(F)F)c2)C1` showed a melting point of 81 to 82 °C.
In the case of `O=C1OC(=O)c2cc3ccc(C(F)(F)F)cc3c3cccc1c23` it was 310 to 312 °C.
`CC(=O)NC[C@H]1CN(c2ccc(N3CCC4(CC3)OCCS4)c(F)c2)C(=O)O1` had a melting point of 160 to 164 °C.
In the case of `CCOc1ccccc1-c1ncc(C(N)=O)c(=O)[nH]1` it was 236 to 238 °C.
As to `Cc1cc(C)c2c(c1C)OC(=O)C2c1ccccc1` (centres undefined), the melting point was in the range of 129 to 130 °C.
The molecule `COc1c(C(=O)O)sc(C)c1C` returned a melting point of 142 to 143 °C.
In the case of `CCOC(=O)CCCCCOc1ccc(-c2ccccc2)c(-c2ccccc2)n1` it was 85 to 87 °C.
In the case of `COc1ccc(-c2nnc3c4ccccc4c(CCl)nn23)cc1` it was 203 to 206 °C; in that of `C[C@H]1[C@H](c2ccccc2)N(C)C(=O)N1C(=O)NC1CCCCC1` (relative stereo), 108 °C.
In the case of `COc1cc(OCc2cccc([N+](=O)[O-])c2)ccc1C(C)=O` it was 111 to 114 °C.
Molecule `CNC(=C[N+](=O)[O-])NCCSCc1ncccc1OC` had a melting point of 146 to 147 °C.
In the case of `CC12CCC(O)CC1CCC1C2CCC2(C)C1CCC2(SCc1ccccc1)SCc1ccccc1` (centres undefined) it was 184 to 185 °C; in that of `Cc1cccc(C)c1NCC(C)Nc1c(C)cccc1C` (centres undefined), 52 to 55 °C; in that of `Cc1cccc(N)c1C(=O)Nc1nnn[nH]1`, 248 °C.
For the molecule `Cc1nc(NCC(F)(F)F)c2nc(-c3ccccc3)cc-2[nH]1`, the melting point was over 310 °C.
In the case of `Cc1nc(-c2ccccc2)ncc1CBr` it was 65 to 66 °C; in that of `CCOC(=O)CCCCc1cn(-c2cccnc2)c2ccccc12`, 56 to 58 °C; in that of `CC(=O)OC1CSC(Oc2ccc(C)nc2-c2ccncc2)C(OC(C)=O)C1OC(C)=O` (centres undefined), 140 to 144 °C.
In the case of `CCCn1c(=O)c2[nH]c(C(C)(C)C)nc2n(CCNC(C)=O)c1=O` it was 194 to 195 °C.
`Cc1cc(-c2nc3cccnn3c2-c2ccnc(NC(=O)NCC(C)C)c2)ccc1F` showed a melting point of 213 to 214 °C.
`ClCc1ccc2c(c1)Nc1nccnc1S2` registered a melting point of 161 to 162 °C.
Molecule `COC(=O)C1Oc2ccccc2CC1CO` (centres undefined) had a melting point of 84 to 85 °C.
In the case of `C=CCOCN1C(C)=C(C(=O)OCC)C(c2cccc([N+](=O)[O-])c2)C(C(=O)OCC)=C1C`, the melting point lay in the range of 111 to 112 °C.
In turn, `CC(=O)c1cc(Nc2nc(N)nc(N)n2)cc(C(C)=O)c1` yielded a melting point of 271 to 272 °C.
In turn, `CC1Cc2ccccc2C1=NO` (centres undefined) had a melting point of 82 to 91 °C.
Take `CN1CC=C(c2c[nH]c3ccc(NC(=N)c4cccs4)cc23)CC1`: the melting point was in the range of 215 to 218 °C.
In the case of `CC(O)c1cnc(C(F)(F)F)nc1` (centres undefined) it was 43 to 45 °C; in that of `CS(=O)(=O)Nc1ccccc1OCCCN1CCC(OC(c2ccsc2)c2ccsc2)CC1`, 92 to 94 °C.
In the case of `Cc1c(SCCCSCC2CN(C)C(=O)O2)ccnc1CNc1cnc2ccccc2c1` (centres undefined) it was 98 to 100 °C.
In the case of `CC1=C(C(=O)O)C(c2ccccc2Cl)C(c2nnco2)=C(C)N1` (centres undefined), the melting point is 187 to 190 °C.
In the case of `COc1ccc(OC)c2c1C(=O)C=C(SCCCCCCCCCCC(=O)NCC(C)C)C2=O` it was 74 to 75 °C.
As for `N#Cc1ccccc1N1CCN(Cc2nc3ccccc3[nH]2)CC1`, the melting point fell in the range of 236 to 237 °C.
In the case of `CCOC(=O)c1c(CCCN(CC)CC)nc2cc(OC)c(OC)cc2c1-c1ccc(OC)c(OC)c1` it was 96 to 98 °C.
In the case of `Cc1ccc2nccc(Cl)c2c1`, the melting point was in the range of 47 to 51 °C.
`CC(=O)OCc1c(C(=O)C(=O)O)c2cc(-c3ccc(OC(F)(F)F)cc3)ccc2n1Cc1ccc(C)cc1` showed a melting point of 79 to 80 °C.
`COCCc1nc2c(N)nc3c(c2n1CCCNC(=O)N1CCOCC1)CCCC3` came in with a melting point of 172 to 173 °C.
In turn, `Cc1cc(N2CCCC2)cc2c1C(=O)OC2=O` came in with a melting point of 222 to 225 °C.
In the case of `Cc1ccccc1C(=O)Nc1ccc(C(=O)N2CCc3cnoc3-c3ccccc32)cc1` it was 257 to 260 °C; in that of `C[C@H](CO)Nc1nc(SCc2ccccc2F)nc2[nH]c(=O)cnc12`, 203 to 205 °C; in that of `COc1ccc(C2(C=O)C=CC=CC2)cc1OCCCN1CCC(c2noc3cc(F)ccc23)CC1` (centres undefined), 140 to 141 °C.
In the case of `COC(=O)C(O)C(NC(=O)OC(C)(C)C)C1CC1` (centres undefined) it was 93 °C.
`CC(=O)NC(=S)NCC1CC2c3cccc4c3c(cn4C)CC2N(C)C1` (centres undefined): the melting point is 195 to 197 °C.
For the molecule `O=C(Nc1nccc2ccc(CO)cc12)c1ccccc1`, the melting point is 190 to 193 °C.
In the case of `O=[N+]([O-])c1ccc(Nc2ccccn2)c(C(F)(F)F)c1` it was 83 to 84 °C; in that of `CCOC(=O)c1cnn(C)c1C(=O)Nc1ccn2nc(N(C)C)nc2c1`, 193 to 195 °C; in that of `Cc1ccc(S(=O)(=O)N2CCC[C@H](C(C#N)(c3ccccc3)c3ccccc3)C2)cc1`, 148 to 150 °C.
In turn, `CC(c1ccccc1OCCCC(=O)O)N(c1cc(F)ccc1F)S(=O)(=O)c1ccc(Cl)cc1` (centres undefined) returned a melting point of 141 to 142 °C.
`COc1ccc(-c2cc(=O)[nH]nc2C)cc1`: the melting point was in the range of 255 to 256 °C.
